In patent publication US10022453B2 (BAYER PHARMA AKTIENGESELLSCHAFT, priority 2013, dated 2018):
pIC50: −log10 of the molar value.

Legend:
NCI-H292 = assay: Cytotoxic effects, MTT assay; assay type: cell-based; conditions: Homo sapiens, 72 h incubation
Description: The cells are cultivated by a standard method, as indicated in the […] (ATCC) for the respective cell lines.
At the end of the selected incubation time, the MTT reagent is incubated with the cells for 4 h, followed by lysis of the cells overnight by addition of the detergent. […] The proliferation of cells which were not treated with test substance but were otherwise identically treated was defined as the 100% figure.

[1] = Cell permeability, flux assay using Caco-2 cells; conditions: human, Caco-2
Description: C-3 In Vitro Tests for Determining Cell Permeability
The cell permeability of a substance can be investigated by means of in vitro testing in a flux assay using Caco-2 cells [M. D. Troutman and D. R. Thakker, Pharm. […] For this purpose, the cells were cultured for 15-16 days on 24-well filter plates. For the determination of permeation, the respective working example was applied in a HEPES buffer to the cells either apically (A) or basally (B) and incubated for 2 hours. After 0 hours and after 2 hours, samples were taken from the cis and trans compartments. The samples were separated by HPLC (Agilent 1200, Böblingen, Germany) using reverse phase columns.
Of critical importance for toxophores which are released intracellularly is the permeability from B to A [Papp(B-A)] and the ratio of Papp(B-A) to Papp(A-B) (efflux ratio): the lower this permeability, the slower the active and passive transport processes of the substance through the monolayer of Caco-2 cells.

[2] = molecular target: T1, human kinesin spindle protein KSP/Eg5 (Homo sapiens, UniProt P52732); assay: Inhibition of the kinesin spindle protein KSP/Eg5 (ATPase, malachite green); assay type: biochemical; conditions: 10 nM KSP motor domain, 500 μM ATP, 2 h RT
T1 construct: The motor domain of the human kinesin spindle protein KSP/Eg5; purchased tebu-bio/Cytoskeleton Inc 027EG01-XL
T1 sequence (P52732 18-359 limits assumed): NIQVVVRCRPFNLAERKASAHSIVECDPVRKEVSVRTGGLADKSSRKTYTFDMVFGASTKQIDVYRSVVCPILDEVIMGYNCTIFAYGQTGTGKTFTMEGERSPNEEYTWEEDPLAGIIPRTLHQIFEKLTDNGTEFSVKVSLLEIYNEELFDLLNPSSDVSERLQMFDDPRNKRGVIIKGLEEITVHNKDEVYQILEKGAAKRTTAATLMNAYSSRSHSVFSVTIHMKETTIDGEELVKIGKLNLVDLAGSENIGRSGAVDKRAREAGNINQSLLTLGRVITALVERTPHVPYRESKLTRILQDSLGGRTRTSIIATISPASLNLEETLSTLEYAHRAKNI
Description: C-1b Determination of the Inhibition of the Kinesin Spindle Protein KSP/Eg5 by Selected Examples
The motor domain of the human kinesin spindle protein KSP/Eg5 (from tebu-bio/Cytoskeleton Inc, No. 027EG01-XL) is incubated at a concentration of 10 nM with 50 μg/ml taxol- (from Sigma No. T7191-5MG) stabilized microtubuli (bovine or porcine, from tebu-bio/Cytoskeleton Inc) for 5 min at RT in 15 mM PIPES, pH 6.8 (5 mM MgCl2 and 10 mM DTT, from Sigma). The freshly prepared mixture is aliquoted into a 384-well MTP. The inhibitors to be examined at concentrations of 1.0×10^−6 M to 1.0×10^−13 and ATP (final concentration 500 μM, from Sigma) are then added. Incubation is at RT for 2 h. ATPase activity is detected by detecting the inorganic phosphate formed using malachite green (from Biomol). […] The individual data of the dose-activity curve are eight-fold determinations. The IC50 values are means of three independent experiments.

Row | pIC50 [2] | Structure (SMILES) | IC50 (NCI-H292) [nM] | Papp B→A at 2 h [1] [×10⁻⁶ cm/s] | efflux ratio at 2 h [1]
1 |  | CC(C)(C)[C@H](c1cc(-c2cc(F)ccc2F)cn1Cc1ccccc1)N(CCCN)C(=O)CSCCC(NC(=O)CCOCCOCCOCCOCCNC(=O)CCN1C(=O)CC(SC[C@H](N)C(=O)O)C1=O)C(=O)O.O=C(O)C(F)(F)F (mixture of isomers) [Example 138, N-[19-(3(R/S)-{[(2R)-2-amino-2-carboxyethyl]sulphanyl}-2,5-dioxopyrrolidin-1-yl)-17-oxo-4,7,10,13-tetraoxa-16-azanonadecan-1-oyl]-R/S-{2-[(3-aminopropyl){(1R)-1-[1-benzyl-4-(2,5-difluorophenyl)-1H-pyrrol-2-yl]-2,2-dimethylpropyl}amino]-2-oxoethyl}homocysteine/trifluoroacetic acid (1:1)] | ≥ 500 | 0.17 | 1.6
2 | 8.74 | CC(C)(C)[C@H](c1cc(-c2cc(F)ccc2F)cn1Cc1ccccc1)N(CCCN)C(=O)CO [Example 98, N-(3-aminopropyl)-N-{(1R)-1-[1-benzyl-4-(2,5-difluorophenyl)-1H-pyrrol-2-yl]-2,2-dimethylpropyl}-2-hydroxyacetamide] | 1.65 |  | 
3 |  | CNC(=O)[C@@H](N)CCN(C(=O)CO)[C@@H](c1cc(-c2cc(F)ccc2F)cn1Cc1ccccc1)C(C)(C)C.O=C(O)C(F)(F)F [Example 99, Trifluoroacetic acid/(2S)-2-amino-4-[{(1R)-1-[1-benzyl-4-(2,5-difluorophenyl)-1H-pyrrol-2-yl]-2,2-dimethylpropyl}(glycoloyl)amino]-N-methylbutanamide (1:1)] | 0.851 | 30.3 | 8.7
4 | 8.33 | CC(C)(C)[C@@H](c1cc(-c2cc(F)ccc2F)cn1Cc1ccccc1)N(CCCN)C(=O)CO [Example 102, N-(3-Aminopropyl)-N-{(1S)-1-[1-benzyl-4-(2,5-difluorophenyl)-1H-pyrrol-2-yl]-2,2-dimethylpropyl}-2-hydroxyacetamide] | 32.9 |  | 
5 |  | CC(C)(C)[C@H](c1cc(-c2cc(F)ccc2F)cn1Cc1ccccc1)N(CC[C@H](N)C(=O)NCCNC(=O)CN1C(=O)CC(SC[C@H](N)C(=O)O)C1=O)C(=O)CO.O=C(O)C(F)(F)F (stereo partly drawn) [Example 135, S-[1-(2-{[2-({(2S)-2-Amino-4-[{(1R)-1-[1-benzyl-4-(2,5-difluorophenyl)-1H-pyrrol-2-yl]-2,2-dimethylpropyl}(glycoloyl)amino]butanoyl}amino)ethyl]amino}-2-oxoethyl)-2,5-dioxopyrrolidin-3-yl]-L-cysteine/trifluoroacetic acid (1:1)] | ≥ 500 | 0.78 | 4
6 |  | CC(C)(C)[C@H](c1cc(-c2cc(F)ccc2F)cn1Cc1ccccc1)N(CC[C@H](N)C(=O)NCCNC(=O)CSC[C@H](N)C(=O)O)C(=O)CO.O=C(O)C(F)(F)F [Example 158, S-(2-{[2-({(2S)-2-Amino-4-[{(1R)-1-[1-benzyl-4-(2,5-difluorophenyl)-1H-pyrrol-2-yl]-2,2-dimethylpropyl}(glycoloyl)amino]butanoyl}amino)ethyl]amino}-2-oxoethyl)-L-cysteine/trifluoroacetic acid (1:1)] | 22.2 | 0.56 | 2.2
7 |  | CC(C)(C)[C@H](c1cc(-c2cc(F)ccc2F)cn1Cc1ccccc1)N(CC[C@H](N)C(=O)NCCNC(=O)CC[C@H](N)C(=O)O)C(=O)CO.O=C(O)C(F)(F)F [Example 161, N-[2-({(2S)-2-Amino-4-[{(1R)-1-[1-benzyl-4-(2,5-difluorophenyl)-1H-pyrrol-2-yl]-2,2-dimethylpropyl}(glycoloyl)amino]butanoyl}amino)ethyl]-L-glutamine/trifluoroacetic acid (1:1)] | 35.5 | 0.16 | 
8 |  | CC(C)(C)[C@H](c1cc(-c2cc(F)ccc2F)cn1Cc1ccccc1)N(CC[C@H](N)C(=O)NCCC(=O)NCCCC[C@H](N)C(=O)O)C(=O)CO.O=C(O)C(F)(F)F [Example 162, N^6-(N-(2S)-2-Amino-4-[{(1R)-1-[1-benzyl-4-(2,5-difluorophenyl)-1H-pyrrol-2-yl]-2,2-dimethylpropyl (glycoloyl)amino]butanoyl}-beta-alanyl)-L-lysine/trifluoroacetic acid (1:1)] | 121 | 0.2 | 
9 | 8.10 | CC(=O)N(CCCN)[C@@H](c1nn(-c2cc(F)ccc2F)cc1Cc1ccccc1)C(C)(C)C [Example 181, N-(3-Aminopropyl)-N-{(1R)-1-[4-benzyl-1-(2,5-difluorophenyl)-1H-pyrazol-3-yl]-2,2-dimethylpropyl}acetamide] | 7.72 |  | 
10 | 7.98 | COCC(=O)N(CCCN)[C@@H](c1nn(-c2cc(F)ccc2F)cc1Cc1ccccc1)C(C)(C)C [Example 182, N-(3-aminopropyl)-N-{(1R)-1-[4-benzyl-1-(2,5-difluorophenyl)-1H-pyrazol-3-yl]-2,2-dimethylpropyl}-2-methoxyacetamide] | 1.2 |  | 
11 | 8.21 | CC(C)(C)[C@H](c1nn(-c2cc(F)ccc2F)cc1Cc1ccccc1)N(CCCN)C(=O)c1ccc(F)cc1F [Example 183, N-(3-aminopropyl)-N-{(1R)-1-[4-benzyl-1-(2,5-difluorophenyl)-1H-pyrazol-3-yl]-2,2-dimethylpropyl}-2,4-difluorobenzamide] | 32.9 |  | 
12 | 7.84 | Cc1ccc(C(=O)N(CCCN)[C@@H](c2nn(-c3cc(F)ccc3F)cc2Cc2ccccc2)C(C)(C)C)cc1 [Example 184, N-(3-aminopropyl)-N-{(1R)-1-[4-benzyl-1-(2,5-difluorophenyl)-1H-pyrazol-3-yl]-2,2-dimethylpropyl}-4 methylbenzamide] | 27.8 |  | 
13 | 7.74 | CCOCC(=O)N(CCCN)[C@@H](c1nn(-c2cc(F)ccc2F)cc1Cc1ccccc1)C(C)(C)C [Example 185, N-(3-aminopropyl)-N-{(1R)-1-[4-benzyl-1-(2,5-difluorophenyl)-1H-pyrazol-3-yl]-2,2-dimethylpropyl}-2-ethoxyacetamide] | 12 |  | 
14 | 7.60 | CC(C)(C)[C@H](c1cc(-c2cc(F)ccc2F)cn1Cc1ccccc1)N(CCCN)C(=O)CC(F)(F)F [Example 186, N-(3-Aminopropyl)-N-{(1R)-1-[1-benzyl-4-(2,5-difluorophenyl)-1H-pyrrol-2-yl]-2,2-dimethylpropyl}-3,3,3-trifluoropropanamide] | 9.29 |  | 
15 |  | CC(C)(C)[C@H](c1cc(-c2cc(F)ccc2F)cn1Cc1ccccc1)N(CC[C@H](N)C(=O)O)C(=O)CO.Cl [Example 197, (2S)-2-Amino-4-[{(1R)-1-[1-benzyl-4-(2,5-difluorophenyl)-1H-pyrrol-2-yl]-2,2-dimethylpropyl}(glycoloyl)amino]butanoic acid hydrochloride (1:1)] | 7.35 | 9.3 | 

Row | Structure (SMILES) | pIC50 [2] | IC50 (NCI-H292) [nM] | Papp B→A at 2 h [1] [×10⁻⁶ cm/s] | efflux ratio at 2 h [1]
16 | CC(C)(C)[C@H](c1nc(-c2cc(F)ccc2F)cn1Cc1ccccc1)N(CC[C@H](N)C(=O)NCCN)C(=O)CO.O=C(O)C(F)(F)F.O=C(O)C(F)(F)F [Example 80, Trifluoroacetic acid/(2S)-2-amino-N-(2-aminoethyl)-4-[{(1R)-1-[1-benzyl-4-(2,5-difluorophenyl)-1H-imidazol-2-yl]-2,2-dimethylpropyl}(glycoloyl)amino]butanamide (2:1)] | 8.43 |  | 20 | 22
17 | CC(C)(C)[C@H](c1nc(-c2cc(F)ccc2F)cn1Cc1ccccc1)N(CC[C@H](N)C(=O)NCCNC(=O)CSC[C@H](N)C(=O)O)C(=O)CO.O=C(O)C(F)(F)F [Example 97, S-(2-{[2-({(2S)-2-Amino-4-[{(1R)-1-[1-benzyl-4-(2,5-difluorophenyl)-1H-imidazol-2-yl]-2,2-dimethylpropyl}(glycoloyl)amino]butanoyl}amino)ethyl]amino}-2-oxoethyl)-L-cysteine/trifluoroacetic acid (1:1)] | 8.67 |  | 0.56 | 2
